Experimental data reported in PMC5059578, “Construction of a Turn Off-On-Off Fluorescent System Based on Competitive Coordination of Cu^2+ between 6,7-Dihydroxycoumarin and Pyrophosphate Ion for Sensitive Assay of Pyrophosphatase Activity” (Journal of Analytical Methods in Chemistry, 2016).

Biological target: T1, Baker's yeast inorganic pyrophosphatase (PPase, EC 3.6.1.1) (Saccharomyces cerevisiae, UniProt P00817)
T1 construct: gene IPP1
Assay: Fluorescent Cu2+-DHC-PPi displacement assay of PPase activity after preincubation with NaF
Assay type: biochemical

T1 sequence (P00817 2-287): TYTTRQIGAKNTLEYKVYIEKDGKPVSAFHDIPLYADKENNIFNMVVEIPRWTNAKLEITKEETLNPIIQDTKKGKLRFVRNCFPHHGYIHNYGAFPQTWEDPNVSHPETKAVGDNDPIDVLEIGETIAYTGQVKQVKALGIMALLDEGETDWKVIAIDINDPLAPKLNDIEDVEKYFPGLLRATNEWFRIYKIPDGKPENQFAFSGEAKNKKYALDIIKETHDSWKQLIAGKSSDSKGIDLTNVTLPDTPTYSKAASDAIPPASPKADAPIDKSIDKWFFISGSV

Q: How did the IC50 turn out when `[F-].[Na+]` [NaF] was run?
A: Its IC50 is about 18.2 µM.
